# In PubChem BioAssay AID1745844 (Carcinogenic Potency Database (CPDB), 2022):
# Test system: rodent lifetime carcinogenesis bioassay, tumor incidence TD50
# Experiment: carcinogenic potency in animals, long-term in vivo studies, CPDB compilation (AID 1745844)
# Conditions: by gavage
smiles,measurement,setting,value
CC(C)=CCl,TD50,"mouse, strain B6C3F1, females, site: Harderian gland, lesion: papillary adenoma, dosed 102 weeks, study length 103 weeks",146 mg/kg/day
same,TD50,"mouse, strain B6C3F1, females, site: any site (literature study), lesion: several types, types named in the paper, dosed 102 weeks, study length 103 weeks",14.6 mg/kg/day
same,TD50,"mouse, strain B6C3F1, females, site: forestomach, lesion: adenosquamous carcinoma + carcinoma, NOS + squamous-cell carcinoma + squamous-cell papilloma, dosed 102 weeks, study length 103 weeks",14.3 mg/kg/day
same,TD50,"mouse, strain B6C3F1, females, site: forestomach, lesion: adenosquamous carcinoma + carcinoma, NOS + squamous-cell carcinoma, dosed 102 weeks, study length 103 weeks",14.3 mg/kg/day
same,TD50,"mouse, strain B6C3F1, females, site: forestomach, lesion: squamous-cell carcinoma + squamous-cell papilloma, dosed 102 weeks, study length 103 weeks",14.4 mg/kg/day
same,TD50,"mouse, strain B6C3F1, females, site: forestomach, lesion: squamous-cell carcinoma, dosed 102 weeks, study length 103 weeks",14.4 mg/kg/day
same,TD50,"mouse, strain B6C3F1, females, site: forestomach, lesion: squamous-cell papilloma, dosed 102 weeks, study length 103 weeks",373 mg/kg/day
same,TD50,"mouse, strain B6C3F1, females, site: jejunum + liver + multiple organs + spleen, lesion: malignant lymphoma, lymphocytic type + malignant lymphoma, mixed type + malignant lymphoma, histiocytic type, dosed 102 weeks, study length 103 weeks",124 mg/kg/day
same,TD50,"mouse, strain B6C3F1, females, site: liver + multiple organs + spleen, lesion: malignant lymphoma, mixed type, dosed 102 weeks, study length 103 weeks",229 mg/kg/day
same,TD50,"mouse, strain B6C3F1, females, site: liver, lesion: hepatocellular adenoma + hepatocellular carcinoma + neoplastic nodule, dosed 102 weeks, study length 103 weeks",150 mg/kg/day
same,TD50,"mouse, strain B6C3F1, females, site: liver, lesion: hepatocellular adenoma, dosed 102 weeks, study length 103 weeks",150 mg/kg/day
same,TD50,"mouse, strain B6C3F1, females, site: lung, lesion: alveolar/bronchiolar adenoma + alveolar/bronchiolar carcinoma, dosed 102 weeks, study length 103 weeks",186 mg/kg/day
same,TD50,"mouse, strain B6C3F1, females, site: lung, lesion: alveolar/bronchiolar adenoma, dosed 102 weeks, study length 103 weeks",235 mg/kg/day
same,TD50,"mouse, strain B6C3F1, males, site: Harderian gland, lesion: papillary adenoma, dosed 102 weeks, study length 103 weeks",149 mg/kg/day
same,TD50,"mouse, strain B6C3F1, males, site: any site (literature study), lesion: several types, types named in the paper, dosed 102 weeks, study length 103 weeks",13.9 mg/kg/day
same,TD50,"mouse, strain B6C3F1, males, site: duodenum + lymph node + multiple organs + spleen, lesion: malignant lymphoma, mixed type + malignant lymphoma, NOS + granulocytic leukemia + malignant lymphoma, histiocytic type + malign, dosed 102 weeks, study length 103 weeks",148 mg/kg/day
same,TD50,"mouse, strain B6C3F1, males, site: duodenum + lymph node + multiple organs + spleen, lesion: malignant lymphoma, mixed type + malignant lymphoma, NOS + malignant lymphoma, histiocytic type + malignant lymphoma, lymphocy, dosed 102 weeks, study length 103 weeks",154 mg/kg/day
same,TD50,"mouse, strain B6C3F1, males, site: forestomach + preputial gland, lesion: squamous-cell carcinoma + squamous-cell papilloma, dosed 102 weeks, study length 103 weeks",15.2 mg/kg/day
same,TD50,"mouse, strain B6C3F1, males, site: forestomach, lesion: squamous-cell carcinoma + squamous-cell papilloma, dosed 102 weeks, study length 103 weeks",15.5 mg/kg/day
same,TD50,"mouse, strain B6C3F1, males, site: forestomach, lesion: squamous-cell carcinoma, dosed 102 weeks, study length 103 weeks",17.2 mg/kg/day
same,TD50,"mouse, strain B6C3F1, males, site: forestomach, lesion: squamous-cell papilloma, dosed 102 weeks, study length 103 weeks",195 mg/kg/day
same,TD50,"mouse, strain B6C3F1, males, site: liver + mesenteric lymph node + preputial gland + spleen, lesion: hemangioma + hemangiosarcoma, dosed 102 weeks, study length 103 weeks",221 mg/kg/day
same,TD50,"mouse, strain B6C3F1, males, site: liver + spleen, lesion: hemangiosarcoma, dosed 102 weeks, study length 103 weeks",375 mg/kg/day
same,TD50,"mouse, strain B6C3F1, males, site: liver, lesion: hepatocellular adenoma + hepatocellular carcinoma + neoplastic nodule, dosed 102 weeks, study length 103 weeks",48.8 mg/kg/day
same,TD50,"mouse, strain B6C3F1, males, site: liver, lesion: hepatocellular adenoma + hepatocellular carcinoma, dosed 102 weeks, study length 103 weeks",48.8 mg/kg/day
same,TD50,"mouse, strain B6C3F1, males, site: liver, lesion: hepatocellular adenoma, dosed 102 weeks, study length 103 weeks",87.1 mg/kg/day
same,TD50,"mouse, strain B6C3F1, males, site: liver, lesion: hepatocellular carcinoma, dosed 102 weeks, study length 103 weeks",104 mg/kg/day
same,TD50,"mouse, strain B6C3F1, males, site: lung, lesion: alveolar/bronchiolar adenoma + alveolar/bronchiolar carcinoma, dosed 102 weeks, study length 103 weeks",87.7 mg/kg/day
same,TD50,"mouse, strain B6C3F1, males, site: lung, lesion: alveolar/bronchiolar adenoma, dosed 102 weeks, study length 103 weeks",117 mg/kg/day
same,TD50,"mouse, strain B6C3F1, males, site: lung, lesion: alveolar/bronchiolar carcinoma, dosed 102 weeks, study length 103 weeks",199 mg/kg/day
same,TD50,"mouse, strain B6C3F1, males, site: preputial gland, lesion: squamous-cell carcinoma, dosed 102 weeks, study length 103 weeks",90.7 mg/kg/day
same,TD50,"rat, strain Fischer 344, females, site: any site (literature study), lesion: several types, types named in the paper, dosed 100 weeks, study length 104 weeks",11.9 mg/kg/day
same,TD50,"rat, strain Fischer 344, females, site: esophagus + forestomach + gingiva + nasal cavity + oral mucosa + palate + tongue, lesion: squamous-cell carcinoma + squamous-cell papilloma + adenocarcinoma + adenoma, NOS + carcinoma, NOS, dosed 100 weeks, study length 104 weeks",25.3 mg/kg/day
same,TD50,"rat, strain Fischer 344, females, site: esophagus, lesion: squamous-cell carcinoma, dosed 100 weeks, study length 104 weeks",250 mg/kg/day
same,TD50,"rat, strain Fischer 344, females, site: forestomach, lesion: squamous-cell carcinoma + squamous-cell papilloma, dosed 100 weeks, study length 104 weeks",95.2 mg/kg/day
same,TD50,"rat, strain Fischer 344, females, site: forestomach, lesion: squamous-cell carcinoma, dosed 100 weeks, study length 104 weeks",191 mg/kg/day
same,TD50,"rat, strain Fischer 344, females, site: forestomach, lesion: squamous-cell papilloma, dosed 100 weeks, study length 104 weeks",209 mg/kg/day
same,TD50,"rat, strain Fischer 344, females, site: gingiva + oral mucosa + palate + tongue, lesion: squamous-cell carcinoma + squamous-cell papilloma, dosed 100 weeks, study length 104 weeks",318 mg/kg/day
same,TD50,"rat, strain Fischer 344, females, site: lung, lesion: alveolar/bronchiolar adenoma + alveolar/bronchiolar carcinoma, dosed 100 weeks, study length 104 weeks",218 mg/kg/day
same,TD50,"rat, strain Fischer 344, females, site: mammary gland, lesion: adenocarcinoma + fibroadenoma, dosed 100 weeks, study length 104 weeks",36.7 mg/kg/day
same,TD50,"rat, strain Fischer 344, females, site: mammary gland, lesion: fibroadenoma, dosed 100 weeks, study length 104 weeks",38.3 mg/kg/day
same,TD50,"rat, strain Fischer 344, females, site: multiple organs, lesion: lymphocytic leukemia + mononuclear-cell leukemia, dosed 100 weeks, study length 104 weeks",170 mg/kg/day
same,TD50,"rat, strain Fischer 344, females, site: multiple organs, lesion: mononuclear-cell leukemia, dosed 100 weeks, study length 104 weeks",202 mg/kg/day
same,TD50,"rat, strain Fischer 344, females, site: nasal cavity, lesion: adenocarcinoma + adenoma, NOS + carcinoma, NOS + squamous-cell carcinoma, dosed 100 weeks, study length 104 weeks",34.3 mg/kg/day
same,TD50,"rat, strain Fischer 344, females, site: nasal cavity, lesion: adenocarcinoma + adenoma, NOS, dosed 100 weeks, study length 104 weeks",143 mg/kg/day
same,TD50,"rat, strain Fischer 344, females, site: nasal cavity, lesion: adenocarcinoma + carcinoma, NOS + squamous-cell carcinoma, dosed 100 weeks, study length 104 weeks",35.2 mg/kg/day
same,TD50,"rat, strain Fischer 344, females, site: nasal cavity, lesion: adenocarcinoma, dosed 100 weeks, study length 104 weeks",159 mg/kg/day
same,TD50,"rat, strain Fischer 344, females, site: nasal cavity, lesion: carcinoma, NOS + squamous-cell carcinoma, dosed 100 weeks, study length 104 weeks",46.8 mg/kg/day
same,TD50,"rat, strain Fischer 344, females, site: nasal cavity, lesion: carcinoma, NOS, dosed 100 weeks, study length 104 weeks",52.7 mg/kg/day
same,TD50,"rat, strain Fischer 344, females, site: oral mucosa + palate, lesion: squamous-cell papilloma, dosed 100 weeks, study length 104 weeks",1010 mg/kg/day
same,TD50,"rat, strain Fischer 344, females, site: oral mucosa, lesion: squamous-cell papilloma, dosed 100 weeks, study length 104 weeks",1220 mg/kg/day
same,TD50,"rat, strain Fischer 344, females, site: pituitary gland, anterior, lesion: adenoma, NOS + chromophobe adenoma + chromophobe carcinoma, dosed 100 weeks, study length 104 weeks",68 mg/kg/day
same,TD50,"rat, strain Fischer 344, females, site: pituitary gland, anterior, lesion: adenoma, NOS + chromophobe adenoma, dosed 100 weeks, study length 104 weeks",101 mg/kg/day
same,TD50,"rat, strain Fischer 344, females, site: pituitary gland, anterior, lesion: chromophobe adenoma + chromophobe carcinoma, dosed 100 weeks, study length 104 weeks",71.7 mg/kg/day
same,TD50,"rat, strain Fischer 344, females, site: pituitary gland, anterior, lesion: chromophobe adenoma, dosed 100 weeks, study length 104 weeks",109 mg/kg/day
same,TD50,"rat, strain Fischer 344, females, site: pituitary gland, anterior, lesion: chromophobe carcinoma, dosed 100 weeks, study length 104 weeks",222 mg/kg/day
same,TD50,"rat, strain Fischer 344, females, site: thyroid gland, lesion: c-cell adenoma, dosed 100 weeks, study length 104 weeks",225 mg/kg/day
same,TD50,"rat, strain Fischer 344, females, site: thyroid gland, lesion: follicular-cell adenoma + follicular-cell carcinoma, dosed 100 weeks, study length 104 weeks",131 mg/kg/day
same,TD50,"rat, strain Fischer 344, females, site: thyroid gland, lesion: follicular-cell carcinoma, dosed 100 weeks, study length 104 weeks",136 mg/kg/day
same,TD50,"rat, strain Fischer 344, females, site: uterus, lesion: endometrial stromal polyp + endometrial stromal sarcoma, dosed 100 weeks, study length 104 weeks",84.9 mg/kg/day
same,TD50,"rat, strain Fischer 344, females, site: uterus, lesion: endometrial stromal polyp, dosed 100 weeks, study length 104 weeks",91.9 mg/kg/day
same,TD50,"rat, strain Fischer 344, males, site: adrenal gland + adrenal medulla, lesion: pheochromocytoma, malignant + pheochromocytoma, dosed 94 weeks, study length 104 weeks",86.7 mg/kg/day
same,TD50,"rat, strain Fischer 344, males, site: any site (literature study), lesion: several types, types named in the paper, dosed 94 weeks, study length 104 weeks",10.2 mg/kg/day
same,TD50,"rat, strain Fischer 344, males, site: esophagus + forestomach + lip + nasal cavity + palate + tongue, lesion: squamous-cell carcinoma + squamous-cell papilloma + adenocarcinoma + carcinoma, NOS, dosed 94 weeks, study length 104 weeks",17.5 mg/kg/day
same,TD50,"rat, strain Fischer 344, males, site: esophagus, lesion: squamous-cell carcinoma + squamous-cell papilloma, dosed 94 weeks, study length 104 weeks",81.6 mg/kg/day
same,TD50,"rat, strain Fischer 344, males, site: esophagus, lesion: squamous-cell carcinoma, dosed 94 weeks, study length 104 weeks",143 mg/kg/day
same,TD50,"rat, strain Fischer 344, males, site: esophagus, lesion: squamous-cell papilloma, dosed 94 weeks, study length 104 weeks",218 mg/kg/day
same,TD50,"rat, strain Fischer 344, males, site: forestomach, lesion: squamous-cell carcinoma + squamous-cell papilloma, dosed 94 weeks, study length 104 weeks",41.6 mg/kg/day
same,TD50,"rat, strain Fischer 344, males, site: forestomach, lesion: squamous-cell carcinoma, dosed 94 weeks, study length 104 weeks",135 mg/kg/day
same,TD50,"rat, strain Fischer 344, males, site: forestomach, lesion: squamous-cell papilloma, dosed 94 weeks, study length 104 weeks",67.1 mg/kg/day
same,TD50,"rat, strain Fischer 344, males, site: lip + palate + tongue, lesion: squamous-cell carcinoma + squamous-cell papilloma, dosed 94 weeks, study length 104 weeks",163 mg/kg/day
same,TD50,"rat, strain Fischer 344, males, site: lip + palate + tongue, lesion: squamous-cell carcinoma, dosed 94 weeks, study length 104 weeks",178 mg/kg/day
same,TD50,"rat, strain Fischer 344, males, site: liver, lesion: hepatocellular adenoma + hepatocellular carcinoma + neoplastic nodule, dosed 94 weeks, study length 104 weeks",1030 mg/kg/day
same,TD50,"rat, strain Fischer 344, males, site: multiple organs, lesion: mononuclear-cell leukemia, dosed 94 weeks, study length 104 weeks",128 mg/kg/day
same,TD50,"rat, strain Fischer 344, males, site: nasal cavity, lesion: adenocarcinoma + carcinoma, NOS + squamous-cell carcinoma, dosed 94 weeks, study length 104 weeks",29.7 mg/kg/day
same,TD50,"rat, strain Fischer 344, males, site: nasal cavity, lesion: adenocarcinoma, NOS, dosed 94 weeks, study length 104 weeks",70.1 mg/kg/day
same,TD50,"rat, strain Fischer 344, males, site: nasal cavity, lesion: carcinoma, NOS + squamous-cell carcinoma, dosed 94 weeks, study length 104 weeks",52.1 mg/kg/day
same,TD50,"rat, strain Fischer 344, males, site: nasal cavity, lesion: carcinoma, NOS, dosed 94 weeks, study length 104 weeks",63.4 mg/kg/day
same,TD50,"rat, strain Fischer 344, males, site: nasal cavity, lesion: squamous-cell carcinoma, dosed 94 weeks, study length 104 weeks",297 mg/kg/day
same,TD50,"rat, strain Fischer 344, males, site: testis, lesion: interstitial-cell tumor, dosed 94 weeks, study length 104 weeks",13.9 mg/kg/day
same,TD50,"rat, strain Fischer 344, males, site: tongue, lesion: squamous-cell carcinoma + squamous-cell papilloma, dosed 94 weeks, study length 104 weeks",415 mg/kg/day
same,TD50,"rat, strain Fischer 344, males, site: tongue, lesion: squamous-cell carcinoma, dosed 94 weeks, study length 104 weeks",469 mg/kg/day
